Data on 30 compounds can be found in PubChem BioAssay (NCI).

Each structure is given as a SMILES string.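 How tested: cells in 96-well plates exposed to compound for 48 hours at five concentrations. GI50: concentration for 50% inhibition of growth. At the TGI there is no net growth.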

Experiment in all cases: NCI anticancer screen, dose series, 48 h
In assay [1] the test system is TK-10 renal.
Assay [2] concerns SN12C renal.
Assay [3] deals with SNB-75 CNS.
Assay [4] has as its system NCI-H226 lung.
The test system of assay [5] is HCT-116 colon.
The test system of assay [6] is OVCAR-4 ovarian.
Assay [7] relates to SF-268 CNS.
The test system of assay [8] is DU-145 prostate.
Assay [9] deals with T-47D breast.
Assay [10] has as its system MCF7 breast.

Consider `O=S(=O)(O)c1cc(O)c(N=Nc2ccc(O)cc2O)c2ccccc12`, for which the TGI in [1] was above 100 µM; in assay [2] it was above 100 µM; in [3], above 100 µM; in assay [4], 48.5 µM; in assay [5], above 100 µM; in assay [6] it was above 100 µM. The same compound yielded a TGI in assay [7] above 100 µM.

Regarding `O=C([CH-]C(=O)c1ccccc1)c1ccccc1.[CH-]1CCCCC1.[CH-]1CCCCC1.[CH-]1CCCCC1.[Sn+4]`, the GI50 is 12.1 µM in [1]; 4.35 µM in assay [2]; 7.09 µM in assay [3]; 5.73 µM in assay [4]; 6.3 µM in [5]; 7.64 µM in assay [7]. The TGI amounted to 26.1 µM in [1]; 16.1 µM in [2]; 21.3 µM in assay [3]; 39.3 µM in [4]; 19.9 µM in assay [5]; 24.1 µM in assay [7].

For `COc1ccc2c3c([nH]c2c1[N+](=O)[O-])C(C)N(Cc1ccccc1)CC3` (stereo not given), the TGI was above 100 µM in assay [1]; above 100 µM in assay [2]; above 100 µM in assay [4]; 24 µM in [5]; above 100 µM in [6]; 5.83 µM in assay [7].

For the compound `COC(=O)C1Cc2c(n(C)c3ccccc23)C(CCC(=O)O)N1Cc1ccccc1` (stereo not given), the TGI in assay [1] is above 100 µM; in assay [2], above 100 µM; in assay [3], 89.7 µM; in assay [4] it was 75.2 µM; in [5], 43.2 µM; in assay [6] it was above 100 µM. In assay [7], this compound gave a TGI of 69.9 µM.

With `COc1cc(/C=C/C(=O)/C=C/c2ccc(-n3ccnc3C)cc2)ccc1O`, the GI50 in [1] is 4.74 µM; in [2] it was 2.36 µM; in assay [3], 9.61 µM; in [4] it was 2.37 µM; in [8] it was 2.82 µM; in assay [6], 8.87 µM. Further, the GI50 is 3.12 µM in assay [9] and 2.9 µM in [7]. Further, the TGI is 90.4 µM in assay [1]; 6.63 µM in assay [2]; above 100 µM in [3]; 6.4 µM in assay [4]; 7.55 µM in assay [8]; above 100 µM in [6]. Also, the values for the TGI in assay [9] and in [7] were 15.1 µM and 12.1 µM, respectively.

In the case of `COC(=O)N/N=C(\C)c1c(O)cc(C)oc1=O`, the TGI in assay [1], in assay [2], in assay [3], in [4], in assay [5] and in assay [6] was above 100 µM each time. This compound yielded a TGI in assay [7] above 100 µM.

With `COc1ccc2c(c1)c(-c1nc(-c3c[nH]c4ccncc34)cs1)cn2C`, the GI50 is 1.88 µM in [1]; 1.69 µM in assay [2]; 1.52 µM in assay [3]; 1.47 µM in assay [10]; 1.88 µM in [4]; 1.75 µM in assay [8]. Moreover, the GI50 is 1.69 µM in assay [5], 1.89 µM in [6] and 1.77 µM in assay [7]. For the same compound, the TGI in assay [1] was found to be 3.39 µM; in [2] it was 3.24 µM; in [3], 2.91 µM; in assay [10], 3.09 µM; in [4] it was 3.9 µM; in [8], 3.25 µM. Further, the TGI in [5] was found to be 3.22 µM; in [6] it was 3.71 µM; in assay [7], 3.37 µM.

Take `CC(=O)[O-].Cn1ccnc1CNCc1nccn1C.[Cu+2].[O-][Cl+3]([O-])([O-])[O-]`: the GI50 in assay [1] was above 100 µM; in [2], above 100 µM; in [3], above 100 µM; in assay [4], above 100 µM; in [5], above 100 µM; in assay [6] it was 3.1 µM. Further, the GI50 in assay [7] was above 100 µM. The TGI in assay [1], in assay [2], in assay [3], in assay [4], in assay [5] and in [6] was above 100 µM each time. Also, the TGI in assay [7] was above 100 µM.

Regarding `N/C(=N\N=C\c1ccc(C(F)(F)F)cc1)NO`, the TGI is above 100 µM in assay [1]; above 100 µM in assay [2]; above 100 µM in [3]; above 100 µM in [5]; above 100 µM in assay [6]; 61 µM in [7].

On to `O=[N+]([O-])C=C(c1ccc(Cl)cc1)c1ccc(Cl)cc1`, for which the TGI in [1] amounted to 33.5 µM; in assay [2], 35.6 µM; in assay [3], 39.7 µM; in assay [4], 30.7 µM; in [5], 31.5 µM; in assay [6], 27.6 µM.

For `CCOC(=O)C(=O)CC1=Nc2ccccc2SC(c2cccc(C)c2)C1` (stereo not given), the TGI in assay [2] was found to be 31.2 µM; in [3] it was 38.7 µM; in assay [4] it was 32.5 µM; in assay [5], 27.8 µM; in assay [6], 32 µM; in [7], 32.2 µM.

As to `COc1ccc(CN2c3ccccc3Sc3ccccc32)c(C(F)(F)F)c1`, the GI50 in assay [1] was 5.82 µM; in [2], 9.73 µM; in assay [3], 0.241 µM; in assay [10] it was 0.349 µM; in assay [4], 10.4 µM; in assay [8], 2.08 µM. Moreover, the GI50 in assay [5] is 0.419 µM; in assay [6], 2.17 µM; in assay [7], 10.9 µM. Moreover, the TGI in assay [1] was above 100 µM; in assay [2] it was above 100 µM; in assay [3], above 100 µM; in assay [10], 36.8 µM; in [4], 56.3 µM; in assay [8], above 100 µM. Moreover, the TGI in assay [5] was 21.8 µM; in [6], above 100 µM; in assay [7], 98.5 µM.

Consider `CC1/C(=N\O)CC(c2ccccc2)N(C)C1c1ccccc1` (stereo not given), for which the TGI in assay [1], in [2], in [3], in [4], in [5] and in [6] was above 100 µM each time. The same compound registered a TGI in [7] above 100 µM.

Regarding `CCOP(=O)(OCC)C1CCCOC1=O` (stereo not given), the TGI in assay [1], in [2], in [3], in [5], in assay [6] and in assay [7] was above 100 µM in each case.

Take `CC1=C(/C=C/C(C)=C/C2CC(N(C)C)=CC(=O)O2)C(C)(C)CCC1` (stereo not given): the TGI in assay [1] worked out at 27.5 µM; in assay [2], 29.2 µM; in assay [3], 32.4 µM; in assay [4], 25.8 µM; in assay [5], 43 µM; in assay [6], 31.7 µM. Besides, in assay [7], the TGI turned out to be 40.6 µM.

Consider `CC1=C(C(=O)Nc2ccccc2)C(c2cccc3ccccc23)C(C(=O)Nc2ccccc2)=C(C)N1`, for which the TGI was 96.7 µM in [1]; 33.3 µM in assay [2]; 47.7 µM in assay [3]; 16 µM in assay [4]; 28.7 µM in assay [5]; 43.1 µM in assay [7].

For `CN(C)C(=N/O)/C(=N\O)N(C)C`, the TGI in [1], in assay [2], in assay [3], in [4], in assay [5] and in assay [6] was above 100 µM each time. Besides, the TGI in [7] was above 100 µM.

On to `O=C(/C=C/c1ccccc1F)c1ccc(Cl)c(Cl)c1`, for which the TGI in assay [1] is above 100 µM; in assay [2] it was 98.5 µM; in assay [3], 98.5 µM; in assay [4], above 100 µM; in assay [5] it was 32.1 µM; in [6], above 100 µM. Further, in assay [7], the TGI is above 100 µM.

With `Cc1cccc(C)c1NC(=O)C1=NC(=S)NC(c2ccccc2)C1c1nc2ccccc2s1` (stereo not given), the TGI in assay [1], in assay [2], in assay [3], in [4], in [5] and in [6] was above 100 µM each time. Also, the TGI in assay [7] was above 100 µM.

For `O=C(CC1OC(O)C(Cl)=C1Cl)c1cccnc1` (stereo not given), the TGI in assay [1] was above 100 µM; in assay [2], above 100 µM; in [3], above 100 µM; in assay [4] it was above 100 µM; in [5], above 54.8 µM; in assay [6], above 100 µM. In assay [7], the TGI was above 100 µM.

`CN(C)CCNC(=O)c1cccc2cc3c(Cl)cccc3nc12`: the TGI in assay [1] was 7.66 µM; in assay [2] it was 3.95 µM; in [3], 8.37 µM; in assay [4], 2.73 µM; in assay [5] it was 2.97 µM; in [6] it was 8.15 µM.

On to `CCCCCCCCCCCCCC[N+](C)(C)CCCCCCCCCCCCCC`, for which the GI50 in assay [1] is 2.53 µM; in assay [8], 3.42 µM; in assay [9] it was 2.2 µM; in [7] it was 2.92 µM. Besides, the TGI is 7.03 µM in assay [1], 12.5 µM in assay [8], 7.73 µM in assay [9] and 8.38 µM in assay [7].

Turning to `C[CH2][Ge]([CH2]C)([CH2]C)[O]C(=O)C(OC(C)=O)c1ccccc1` (stereo not given), the GI50 in assay [1], in [2], in assay [3], in assay [4], in assay [5] and in assay [6] was above 100 µM in each case. In addition, the GI50 in [7] was above 100 µM. For the same compound, the TGI in [1], in [2], in assay [3], in assay [4], in assay [5] and in assay [6] was above 100 µM each time. The same compound registered a TGI in assay [7] above 100 µM.

Consider `CNC(=O)c1c(NC(=O)c2ccc(C(C)(C)C)cc2)sc2c(CN(C)C)c(O)ccc12`, for which the GI50 in [1] was 1.94 µM; in [10], 1.41 µM; in [5] it was 0.936 µM; in [7], 1.77 µM. The TGI in assay [1] was 3.94 µM; in assay [10], 2.95 µM; in assay [5], 2.43 µM; in assay [7], 3.46 µM.

As for `CN(C)c1ccc2oc(=O)c3ccccc3c2c1`, the TGI in [1] is above 100 µM; in [2], above 100 µM; in assay [3], 61.8 µM; in assay [4], above 100 µM; in assay [8] it was above 100 µM; in assay [5], above 100 µM. Also, the TGI in [6], in assay [9] and in [7] was above 100 µM throughout.

As to `O=C1C(c2ccc(Br)cc2)=[N+]([O-])c2ccccc21`, the TGI in assay [1] came to 29.7 µM; in [2] it was 29.6 µM; in assay [3], 31.4 µM; in assay [4], 35.3 µM; in assay [5], 27.5 µM; in assay [7] it was 32.3 µM.

For `c1ccc(C2OC3(CCC[C@H]4C[C@H]43)O[C@H]2c2ccccc2)cc1` (stereo not given in full), the TGI was above 100 µM in [1]; above 100 µM in assay [2]; 91.9 µM in assay [3]; above 100 µM in assay [4]; above 100 µM in assay [5]; above 100 µM in assay [6]. Besides, the TGI in [7] is above 100 µM.

In the case of `O=C1C=CC=C/C1=C1/SC(c2ccccc2)=C(O)N1c1ccccc1`, the TGI in assay [1], in [2], in [3], in assay [4], in assay [5] and in assay [6] was above 100 µM in each case. Moreover, the TGI in [7] was above 100 µM.

For `Cc1cccc(C2SCc3nc4ccccc4n32)c1` (stereo not given), the TGI in assay [1] is 56.8 µM; in assay [2], 96.8 µM; in assay [3], 20.7 µM; in assay [4], 60.9 µM; in assay [5] it was 56.7 µM; in [6], above 100 µM. The compound also showed a TGI in assay [7] above 100 µM.

As for `CC(=O)c1c2c(cc3c1CC1(C3)Cc3cc4c(c(C(C)=O)c3C1)CCC4)CCC2`, the TGI in assay [1], in assay [2], in assay [3], in assay [5], in assay [6] and in [7] was above 100 µM each time.
